The text below walks through data of publication PMC5122889, “Sigma-1 Receptor Agonism Promotes Mechanical Allodynia After Priming the Nociceptive System with Capsaicin” (Scientific Reports, 2016).

Counter-ions that a name gives are not always drawn. Like-named read-outs stand apart in the source and are kept apart here.

A short description of data set [1]: in vitro. Also noted: metabolic stability in mouse liver microsomes with NADPH-regenerating system, parent compound by UHPLC-MS/MS. As to conditions: mouse liver microsomes. Here is the method:
(§1) Incubation of the test compounds in mouse or human liver microsomes (Xenotech, Lenexa, KS, USA) was done with a previously described method[55] with modifications. We tested the metabolic stability of PRE-084 and PGB, the latter of which was used as a control because of its poor hepatic metabolism. Briefly, the drugs were incubated in 96-well plates at a concentration of 1 μM and at 37 °C during 1 h under standard incubation conditions: sodium-potassium phosphate buffer (50 mM, pH 7.4), MgCl2 (3 mM), the NADPH-regenerating system and cytochrome P450 content (0.3 nmol/mL). Aliquots of the reaction mixture were obtained at 0, 10, 20, 40 and 60 min with an equal volume of cold acetonitrile. The assay was done in a robotic [compound left out] handling system (Freedom Evo Tecan, Männedorf, Switzerland). Upon centrifugation of the resulting mixture, supernatants were analyzed with a generic ultra-high performance [compound left out] chromatography–tandem mass spectrometry method. For the in vitro metabolic stability in liver microsomes, Ln-linear plots of the percentage of compound remaining based on chromatographic peak area versus time were generated, and the slope was calculated by linear fitting of the curve. The in vitro metabolic t1/2 was estimated with the equation 0.693/k where k is the biotransformation rate constant and corresponds to the slope of the ln-linear curve. Liver microsome Cl int was calculated with the equation [drawing 1]
On the technique in general: Microsomes from liver hold many membrane-bound enzymes, among them those of drug oxidation.

Data set [2] deals with T1, sigma-1 receptor (Mus musculus, UniProt O55242).
T1 construct: gene Sigmar1; native receptor in wild-type mouse brain crude synaptosomal membranes (P2 fraction)
T1 sequence (O55242 whole entry): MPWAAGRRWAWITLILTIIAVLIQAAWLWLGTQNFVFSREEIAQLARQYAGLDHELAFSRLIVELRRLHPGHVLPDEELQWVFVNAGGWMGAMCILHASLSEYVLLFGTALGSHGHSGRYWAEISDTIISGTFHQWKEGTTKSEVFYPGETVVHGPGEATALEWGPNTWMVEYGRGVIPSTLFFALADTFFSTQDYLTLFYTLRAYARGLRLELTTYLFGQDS
In words: [3H](+)-pentazocine competition radioligand binding in mouse brain membranes.

Data set [3] is described as follows: in vitro. Also noted: metabolic stability in human liver microsomes with NADPH-regenerating system, parent compound by UHPLC-MS/MS. The following applies: human liver microsomes. The protocol:
as §1

Data set [4] in a line: in vitro. As to conditions: for remaining at 1 h, 1 µM: pH 7.4, liver microsomes, read-out: % parent compound remaining at 1 h; for half-life at 1 µM / microsomal CLint at 1 µM: pH 7.4, liver microsomes; for microsomal CLint at 1 µM: read-out: Cl int (µL/min/mg protein). Also noted: metabolic stability in liver microsomes with NADPH, UHPLC-MS/MS quantitation of parent compound. The protocol:
as §1

Regarding `O=C(OCCN1CCOCC1)C1(c2ccccc2)CCCCC1` [PRE, 2-(4-morpholinethyl)1-phenylcyclohexanecarboxylate) hydrochloride], the amount remaining (commonly the share of the starting amount still present when the sample was taken) at 1 h, 1 µM in data set [1] (pH 7.4, liver microsomes, read-out: % parent compound remaining at 1 h (mouse)) was 0%; in data set [3] (pH 7.4, liver microsomes, read-out: % parent compound remaining at 1 h (human)), 4 ± 0.58%. The microsomal CLint at 1 µM in data set [1] (pH 7.4, liver microsomes, read-out: Cl int (mouse)) amounted to 949 ± 203 µL/min/mg; in data set [3] (pH 7.4, liver microsomes, read-out: Cl int (human)) it was 103 ± 5 µL/min/mg. In addition, the half-life at 1 µM in data set [1] (pH 7.4, liver microsomes, read-out: t1/2 (mouse)) is 3 ± 0.67 min; in data set [3] (pH 7.4, liver microsomes, read-out: t1/2 (human)) it was 0.217 ± 0.00967 h. Also, the IC50 (usually the concentration needed to halve the response being measured) in data set [2] stood at 188 ± 18.8 nM.

As for `CC(C)C[C@H](CN)CC(=O)O` [Pregabalin], in data set [4] (human liver microsomes), the amount remaining at 1 h, 1 µM came to 95 ± 2.96%; the half-life at 1 µM was found to be 17.9 ± 10.8 h; the microsomal CLint at 1 µM is 2.3 ± 0.94 µL/min/mg. Further, in data set [4] (mouse liver microsomes), the amount remaining at 1 h, 1 µM turned out to be 97 ± 2.67%; the half-life at 1 µM amounted to 10 ± 3.03 h; the microsomal CLint at 1 µM stood at 4.5 ± 1.2 µL/min/mg.
